The values below come from patent US8530489B2 (Vertex Pharmaceuticals Incorporated, priority 2006, dated 2013).

Where only a bound is given, the exact number is not on record here.

This test deals with PLK1 (Homo sapiens, UniProt P53350). The test can be described thus: PLK1 Inhibition Assay I (radioactive-phosphate incorporation). The class given is biochemical. The following applies: Ki(app); PLK1 Inhibition Assay I or II (table does not say which). In a few lines: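 Ki(app) values came from non-linear regression of initial rates after background subtraction, with phosphopeptide measured by phosphocellulose filter binding and scintillation counting. PLK1 at 2 nM was preincubated with compound (typically from 10 μM, 2-fold dilutions) for 10 min, then run 240 min at 25° C with 350 μM [γ-33P]ATP and 450 μM peptide substrate in HEPES pH 7.5 buffer.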
Chain of PLK1 (P53350 whole entry): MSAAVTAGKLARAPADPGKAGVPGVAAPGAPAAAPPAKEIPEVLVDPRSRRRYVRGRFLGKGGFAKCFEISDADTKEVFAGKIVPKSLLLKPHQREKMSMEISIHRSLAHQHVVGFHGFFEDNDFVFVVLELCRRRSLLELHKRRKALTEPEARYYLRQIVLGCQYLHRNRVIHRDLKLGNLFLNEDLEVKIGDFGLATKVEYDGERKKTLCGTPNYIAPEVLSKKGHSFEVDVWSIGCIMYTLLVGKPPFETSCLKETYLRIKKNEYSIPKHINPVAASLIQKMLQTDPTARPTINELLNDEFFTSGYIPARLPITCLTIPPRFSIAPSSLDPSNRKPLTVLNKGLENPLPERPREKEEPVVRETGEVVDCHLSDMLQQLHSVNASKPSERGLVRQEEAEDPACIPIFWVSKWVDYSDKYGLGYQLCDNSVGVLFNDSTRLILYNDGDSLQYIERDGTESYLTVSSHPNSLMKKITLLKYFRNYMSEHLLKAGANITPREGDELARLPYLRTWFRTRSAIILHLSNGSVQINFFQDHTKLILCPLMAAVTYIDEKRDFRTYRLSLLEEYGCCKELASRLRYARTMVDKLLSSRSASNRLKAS
Turning to `CNC(=O)c1cccc(Nc2cnc3[nH]cc(-c4nc(NC(C)C)ncc4C#N)c3c2)c1` [EG7, 3-(3-(5-cyano-2-(isopropylamino)pyrimidin-4-yl)-1H-pyrrolo[2,3-b]pyridin-5-ylamino)-N-methylbenzamide], the Ki is 3 to 40 nM.
As for `CC[C@@H](C)[C@@H](CO)Nc1ncc(C#N)c(-c2c[nH]c3ncc(C(F)(F)F)cc23)n1` [Compound I-116, 2-((2S,3R)-1-hydroxy-3-methylpentan-2-ylamino)-4-(5-(trifluoromethyl)-1H-pyrrolo[2,3-b]pyridin-3-yl)pyrimidine-5-carbonitrile], the figure is 3 to 40 nM.
For the compound `CC(C)(C)OC(=O)N1CCC(CNc2ncc(C#N)c(-c3c[nH]c4ncc(C(F)(F)F)cc34)n2)CC1` [Compound I-28, tert-butyl 4-((5-cyano-4-(5-(trifluoromethyl)-1H-pyrrolo[2,3-b]pyridin-3-yl)pyrimidin-2-ylamino)methyl)piperidine-1-carboxylate], the Ki was more than 40 nM.
Turning to `CC(Nc1ncc(C#N)c(-c2c[nH]c3ncc(C(F)(F)F)cc23)n1)c1ccc(=O)[nH]c1` (stereo not drawn) [Compound I-100, 2-(1-(6-oxo-1,6-dihydropyridin-3-yl)ethylamino)-4-(5-(trifluoromethyl)-1H-pyrrolo[2,3-b]pyridin-3-yl)pyrimidine-5-carbonitrile], the Ki was less than 3 nM.
For `N#Cc1cnc(NCCC2CCCCN2)nc1-c1c[nH]c2ncc(C(F)(F)F)cc12` (stereo not drawn) [Compound I-68, 2-(2-(piperidin-2-yl)ethylamino)-4-(5-(trifluoromethyl)-1H-pyrrolo[2,3-b]pyridin-3-yl)pyrimidine-5-carbonitrile] the value was more than 40 nM; for `C[C@@H](Nc1ncc(C#N)c(-c2c[nH]c3ncc(C(F)(F)F)cc23)n1)[C@H]1CC[C@H](NC(=O)CO)CC1` [Compound I-211, N-((1R,4r)-4-((1R)-1-(5-cyano-4-(5-(trifluoromethyl)-1H-pyrrolo[2,3-b]pyridin-3-yl)pyrimidin-2-ylamino)ethyl)cyclohexyl)-2-hydroxyacetamide], less than 3 nM; for `N#Cc1cnc(NC(CO)c2cccnc2)nc1-c1c[nH]c2ncc(C(F)(F)F)cc12` (stereo not drawn) [Compound I-113, 2-(2-hydroxy-1-(pyridin-3-yl)ethylamino)-4-(5-(trifluoromethyl)-1H-pyrrolo[2,3-b]pyridin-3-yl)pyrimidine-5-carbonitrile], more than 40 nM.
Turning to `C[C@@H](Nc1ncc(C#N)c(-c2c[nH]c3ncc(C(F)(F)F)cc23)n1)C1CCN(C(=O)[C@H](N)CC(N)=O)CC1` [Compound I-250, (3R)-3-amino-4-(4-((1R)-1-(5-cyano-4-(5-(trifluoromethyl)-1H-pyrrolo[2,3-b]pyridin-3-yl)pyrimidin-2-ylamino)ethyl)piperidin-1-yl)-4-oxobutanamide], the Ki is less than 3 nM.
For the compound `CC(Nc1ncc(C#N)c(-c2c[nH]c3ncc(C(F)(F)F)cc23)n1)[C@H]1C[C@@H](O)C1` (stereo partly drawn) [Compound I-270, 2-((S)-1-((1s,3R)-3-hydroxycyclobutyl)ethylamino)-4-(5-(trifluoromethyl)-1H-pyrrolo[2,3-b]pyridin-3-yl)pyrimidine-5-carbonitrile], the Ki was less than 3 nM.
Consider `CCC(=O)N1CCC(C(C)Nc2ncc(C#N)c(-c3c[nH]c4ncc(C(F)(F)F)cc34)n2)CC1` (stereo not drawn) [Compound I-187, 2-(1-(1-propionylpiperidin-4-yl)ethylamino)-4-(5-(trifluoromethyl)-1H-pyrrolo[2,3-b]pyridin-3-yl)pyrimidine-5-carbonitrile], for which the Ki is less than 3 nM.
For `C[C@@H](Nc1ncc(C#N)c(-c2c[nH]c3ncc(C(F)(F)F)cc23)n1)C1CCN(C(=O)[C@H](N)CC#N)CC1` [Compound I-251, 2-((R)-1-(1-((R)-2-amino-3-cyanopropanoyl)piperidin-4-yl)ethylamino)-4-(5-(trifluoromethyl)-1H-pyrrolo[2,3-b]pyridin-3-yl)pyrimidine-5-carbonitrile] the value was less than 3 nM.
As for `C[C@H](Nc1ncc(C#N)c(-c2c[nH]c3ncc(C(F)(F)F)cc23)n1)c1ccc(O[C@@H]2CCN(C)C2)nc1` [Compound I-301, 2-((S)-1-(6-(I-1-methylpyrrolidin-3-yloxy)pyridin-3-yl)ethylamino)-4-(5-(trifluoromethyl)-1H-pyrrolo[2,3-b]pyridin-3-yl)pyrimidine-5-carbonitrile], the figure is more than 40 nM; as for `N#Cc1cnc(NCc2ccc(O)c(O)c2)nc1-c1c[nH]c2ncc(C(F)(F)F)cc12` [Compound I-37, 2-(3,4-dihydroxybenzylamino)-4-(5-(trifluoromethyl)-1H-pyrrolo[2,3-b]pyridin-3-yl)pyrimidine-5-carbonitrile], more than 40 nM; as for `CC(Nc1ncc(C#N)c(-c2c[nH]c3ncc(C(F)(F)F)cc23)n1)C1CCN(C(=O)CN(C)C)CC1` (stereo not drawn) [Compound I-193, 2-(1-(1-(2-(dimethylamino)acetyl)piperidin-4-yl)ethylamino)-4-(5-(trifluoromethyl)-1H-pyrrolo[2,3-b]pyridin-3-yl)pyrimidine-5-carbonitrile], less than 3 nM.
As for `CNC(=O)c1ccc([C@H](C)Nc2ncc(C#N)c(-c3c[nH]c4ncc(C(F)(F)F)cc34)n2)cc1` [Compound I-164, 4-((1S)-1-(5-cyano-4-(5-(trifluoromethyl)-1H-pyrrolo[2,3-b]pyridin-3-yl)pyrimidin-2-ylamino)ethyl)-N-methylbenzamide], the figure is 3 to 40 nM; as for `N#Cc1cnc(NCc2ccccc2)nc1-c1c[nH]c2ncc(C(F)(F)F)cc12` [Compound I-1, 2-(benzylamino)-4-(5-(trifluoromethyl)-1H-pyrrolo[2,3-b]pyridin-3-yl)pyrimidine-5-carbonitrile], more than 40 nM.
With `N#Cc1cnc(NCc2cnc3[nH]ccc3c2)nc1-c1c[nH]c2ncc(C(F)(F)F)cc12` [Compound I-120, 2-((1H-pyrrolo[2,3-b]pyridin-5-yl)methylamino)-4-(5-(trifluoromethyl)-1H-pyrrolo[2,3-b]pyridin-3-yl)pyrimidine-5-carbonitrile], the Ki lay within 3 to 40 nM.
As to `N#Cc1cnc(NC[C@H]2CCCN2)nc1-c1c[nH]c2ncc(C(F)(F)F)cc12` [Compound I-88, 2-((R)-pyrrolidin-2-ylmethylamino)-4-(5-(trifluoromethyl)-1H-pyrrolo[2,3-b]pyridin-3-yl)pyrimidine-5-carbonitrile], the Ki is more than 40 nM.
Take `CCN(CCN(C)C)c1ccc([C@@H](C)Nc2ncc(C#N)c(-c3c[nH]c4ncc(C(F)(F)F)cc34)n2)cn1` [Compound I-296, 2-((R)-1-(6-((2-(dimethylamino)ethyl)(ethyl)amino)pyridin-3-yl)ethylamino)-4-(5-(trifluoromethyl)-1H-pyrrolo[2,3-b]pyridin-3-yl)pyrimidine-5-carbonitrile]: the Ki is less than 3 nM.
For the compound `N#Cc1cnc(NCc2ccccc2F)nc1-c1c[nH]c2ncc(C(F)(F)F)cc12` [Compound I-21, 2-(2-fluorobenzylamino)-4-(5-(trifluoromethyl)-1H-pyrrolo[2,3-b]pyridin-3-yl)pyrimidine-5-carbonitrile], the Ki is more than 40 nM.
As for `C[C@@H](Nc1ncc(C#N)c(-c2c[nH]c3ncc(C(F)(F)F)cc23)n1)c1ccc(N2CC[C@@H](N(C)C)C2)nc1` [Compound I-286, 2-((R)-1-(6-((R)-3-(dimethylamino)pyrrolidin-1-yl)pyridin-3-yl)ethylamino)-4-(5-(trifluoromethyl)-1H-pyrrolo[2,3-b]pyridin-3-yl)pyrimidine-5-carbonitrile], the figure is 3 to 40 nM.
